Common to all, as to type: in vivo
One assay deals with cotton seed. The assay can be described thus: Root system enhancement by neonicotinoid seed treatment, WinRhizo root analysis. Conditions: 28 days after planting, fungicide base plus insecticide seed treatment. How it is done:
In this experiment cotton seed was treated with a fungicide base and one of three commonly used neonicotinoid insecticides: imidacloprid (sold under the trademark GAUCHO 600@0.375 mg ai/seed), clothianidin (sold under the trademark PONCHO 600@0.375 mg ai/seed), and thiomethoxam (sold under the trademark CRUISER@0.34 mg ai/seed).
Fifty seeds from each of the four treatments were planted. […] Seedlings were harvested 28 days after planting and analyzed using the WinRhizo® root analysis system. There was no significant difference in germination.
In Table 1, a comparison of Length, Surface Area, Volume, and Tips/Forks/Crossings, was made through the analysis of 40-45 plants per treatment and by averaging 10 repetitions bracketing the median for each category.

Another assay concerns Soybean Cyst nematodes. Nature of the assay: Soybean seed treatment in soil infested with Soybean Cyst nematodes, height and WinRhizo root system analysis. The source says:
(§1) Soybeans (Variety-S2743-4RR) were planted with a base fungicide package and imidacloprid (sold under the trademark GAUCHO 600@62.5 gm AI/100 kg), a biological nematicide, or a combination of both. The seed were then planted in standard soil and soil infested with Soybean Cyst nematodes. Plants were harvested 28 days later (˜50 plants/treatment/soil type) and compared by height and by a WinRhizo® root system analysis (length, surface area, volume, tips, forks, and crossings (T/F/C))
(§2) The final column of Table 2 compares the total average percent difference in each of the treatments with soybean cyst nematode pressure. The plants with the insecticide alone fared the worst with stunted growth both above and below the soil and a total average reduction of 53%. […] The best overall treatment contained both the biological nematicide and the insecticide and there was only an 8% difference in overall plant development.

Assay in assay [1]: as above
Particulars: SCN-infested soil versus standard soil, same treatment.
Excerpt: as §1, §2

Assay [2] relates to Soybeans (Variety-S2743-4RR). The assay can be described thus: Soybean seed treatment in standard soil, height and WinRhizo root system analysis. Conditions: 28 days.
Excerpt: as §1

Where [3] appears, read: soil infested with Soybean Cyst nematodes (SCN), 28 days.

`CN/C(=N\[N+](=O)[O-])NCc1cnc(Cl)s1` [Clothianidin, clothianidin]: in the assay with cotton seed, the Length stood at 88.11 a cm, the SurfArea was 16.77 a cm^2, the “T/F/C (Tips/Forks/Crossings)” value is 93.93 a and the Volume was 0.29 a cm^3.
Turning to `O=[N+]([O-])NC1=NCCN1Cc1ccc(Cl)nc1` [Imidacloprid, imidacloprid], in the assay with cotton seed, the Length is on record as 92.56 a cm, the SurfArea is 20.11 a cm^2, the “T/F/C (Tips/Forks/Crossings)” value is listed as 85.60 a and the Volume is given as 0.35 a cm^3. Also, in the assay with Soybean Cyst nematodes (insecticide alone), the direct nematicidal activity entry was “no direct nematicidal activity”. Besides, in the assay with Soybean Cyst nematodes (setting [3]), the Height is reported as 19.09 cm, the Length was determined as 167.41 cm, the SurfArea stood at 44.51 cm^2 and the T/F/C was 283.90. Moreover, in the assay with Soybean Cyst nematodes (setting [3]), the Volume was 0.97 cm^3. In addition, in assay [1] (listed as NI), the “% difference (total average percent difference with soybean cyst nematode pressure)” value turned out to be 52.52%. In addition, the “% difference (total average percent difference with soybean cyst nematode pressure)” value in assay [1] (listed as insecticide) turned out to be 53%. In assay [2], the Height is recorded as 26.78 cm, the Length was 281.93 cm, the SurfArea was 66.40 cm^2 and the T/F/C is on record as 497.68. The Volume in assay [2] was determined as 1.25 cm^3.
For `CN1COCN(Cc2cnc(Cl)s2)/C1=N\[N+](=O)[O-]` [Thiomethoxam, thiomethoxam], in the assay with cotton seed, the Length is 95.01 a cm, the SurfArea was 17.43 a cm^2, the “T/F/C (Tips/Forks/Crossings)” value is reported as 77.17 a and the Volume is reported as 0.28 a cm^3.

These data come from patent publication US9560852B2, “Combinations of biological control agents and insecticides or fungicides” (Bayer Intellectual Property GmbH, priority 2008, dated 2017).
